Where “and” joins values, the source holds several entries; their conditions need not be identical. Equal entries are not always repeated. Where two headings read alike, the source gives them in different places. Marks after values point to notes of the source that are not given here.
How the values were obtained:
Salmonella Typhimurium = assay type: cell-based
Excerpt: (§1) To minimize the risk of possible bacteria becoming airborne during treatments, attenuated and non-pathogenic bacteria were used in the study. Two strains of non-pathogenic S. Typhimurium (ATCC 53647 and 53648) and three strains of L. innocua (ATCC 33090, ATCC 51742 and ATCC BAA680) were obtained from American Type Culture Collection (ATCC) (Manassas, Va., USA). Further studies used E. coli O157:H7 (ATCC 700728), S. Typhimurium (ATCC 53647 and 53648), and L. innocua (ATCC 33090) obtained from American Type Culture Collection (ATCC) (Manassas, Va., USA) and maintained as a part of the culture collection at the USDA Eastern Regional Research Center (Wyndmoor, Pa. USA). The bacteria were made to be resistant to nalidixic acid by successive growth in Trypic Soy Broth (TSB) (Difco, Sparks, Md., USA) with increasing nalidixic acid concentrations. All strains were stored at −80° C. in 1 mL of TSB containing 10% glycerol. Working cultures of S. Typhimurium and L. innocua were maintained in 9 mL TSB (supplemented with 100 μg/mL nalidixic acid for S. Typhimurium) at 4° C. after incubating at 37° C. for […], respectively, and sub-cultured each time.
(§2) Each strain of S. Typhimurium and L. innocua was cultured in 9 mL TSB (supplemented with 100 μg/mL nalidixic acid for S. Typhimurium) and incubated at 37° C. for 40 h and 48 h, respectively, harvested by centrifugation at 4000×g for 10 min at 4° C., and resuspended in 9 mL sterile Buffered Peptone Water (BPW; Difco). The pellets were resuspended in BPW to form cell suspensions with a final concentration of 108˜10^9 CFU/mL. Subsequently, suspended pellets of two strains of Salmonella and three strains of L. innocua were combined to obtain two separate culture cocktails.
(§3) Grape tomatoes, granny smith apples, romaine lettuce and cantaloupes were purchased from local markets (Philadelphia, Pa., USA) and kept at 10° C. prior to use. Fruits and vegetables were removed from 10° C. refrigeration and equilibrated to ambient temperature before being inoculated. Romaine lettuce was divided into upper green leaf and midrib tissues. Six tomatoes, six pieces (2×2 cm) of apple skins, five pieces (3×3 cm) of Romaine lettuce upper leaves, five pieces (3 cm length) of Romaine lettuce midrib area and six pieces (2×2 cm) of cantaloupe rinds with 2×3 mm thickness of flesh were used for each treatment per replicate. Bach piece w as spot inoculated with 10 μL of Salmonella and L. innocua by depositing droplets with a micropipette. The inoculated samples were dried in a bio-hood for 1 h (for tomato surfaces, romaine lettuce, apple skins and cantaloupe rinds) or 2 h (for tomato stem scars) at ambient temperature.
(§4) Produce items were placed onto a sterile test tube rack with the inoculated area facing up and the rack with produce pieces were placed inside of a treatment chamber (12×12×24 inch).
(§5) Therefore, each kind of produce was treated with and without cold plasma ionized under the same optimized conditions.
(§6) After each treatment, the tomato stem scars and surfaces with the inoculated bacteria were removed using a pair of sterile scissors. Each type of produce item from the same treatment was combined (total weight: 1.51±0.29 g for tomato stem scars; 2.07±0.15 g for tomato surfaces; 6.37±0.92 g for apple skins; 1.62±0.34 g for Romaine lettuce upper leaves: 13.30±2.97 g for Romaine lettuce midrib tissues: 9.58±1.26 g for cantaloupe rinds) and transferred into an 80 mL filtered stomacher bag. After addition of 30 mL BBL buffered peptone water into the bag, the sample in the bag was homogenized using a mini blender (Mini Mix CC, Interscience laboratories Inc., Woburn, Mass., USA) for 2 min at a setting of 4. […] Tryptic Soy Agar with 200 μg/mL pyruvate acid and 100 μg/mL nalidixic acid (TSA-PN) and PALCAM Agars (Difco) were used for the enumeration of S. Typhimurium and L. innocua, respectively.

Listeria innocua = test: Effect of cold plasma activation on efficacy of ionized/aerosolized H2O2 against Listeria innocua (Study 2); assay type: cell-based
Excerpt: as §1, §2, §3, §4, §5, §6

[1] = Cantaloupe rind, 30 s spray time + 30 min dwell
[2] = Romaine lettuce-midrib, 30 s spray time + 30 min dwell
[3] = Romaine lettuce-upper leaf, 30 s spray time + 30 min dwell
[4] = Tomato-stem scar, three cycles of 20 s spray time plus 20 min dwell time
[5] = Tomato-surface, 8 s spray time + 30 min dwell

**Q.** For `OO` [H2O2 − cold plasma, hydrogen peroxide], which “Populations of Salmonella Typhimurium” value (Salmonella Typhimurium; [1]) is on record?
**A.** 4.83 ± 0.36^b log CFU/piece

**Q.** And the “Reductions of Salmonella Typhimurium” value (Salmonella Typhimurium; [1])?
**A.** 1.54 ± 0.36^y log CFU/piece

**Q.** And the “Reductions of Salmonella Typhimurium” value (Salmonella Typhimurium; Granny Smith apples, 8 s spray time + 30 min dwell)?
**A.** 2.08 ± 0.17^y log CFU/piece

**Q.** What about the “Populations of Salmonella Typhimurium” value (Salmonella Typhimurium; Granny Smith apples, 8 s spray time + 30 min dwell, ND: not detectable (detection limit 0.70 log CFU/piece)) of the same molecule?
**A.** 3.77 ± 0.17^b log CFU/piece

**Q.** And the “Reductions of Salmonella Typhimurium” value (Salmonella Typhimurium; Granny Smith apples, 8 s spray time + 30 min dwell, listed as hydrogen peroxide (H2O2) aerosols without cold plasma)?
**A.** 2.08 log CFU/piece

**Q.** What about the “Populations of Salmonella Typhimurium” value (Salmonella Typhimurium; [2]) of the same molecule?
**A.** 4.16 ± 0.28^b log CFU/piece

**Q.** What about the “Reductions of Salmonella Typhimurium” value (Salmonella Typhimurium; [2]) of the same molecule?
**A.** 1.78 ± 0.28^y log CFU/piece

**Q.** And the “Populations of Salmonella Typhimurium” value (Salmonella Typhimurium; [3])?
**A.** 4.70 ± 0.23^b log CFU/piece

**Q.** And the “Reductions of Salmonella Typhimurium” value (Salmonella Typhimurium; [3])?
**A.** 1.72 ± 0.23^y log CFU/piece

**Q.** What about the “Populations of Salmonella Typhimurium” value (Salmonella Typhimurium; [4]) of the same molecule?
**A.** 4.40 ± 0.28^b log CFU/piece

**Q.** What about the “Reductions of Salmonella Typhimurium” value (Salmonella Typhimurium; [4]) of the same molecule?
**A.** 1.54 ± 0.28^y log CFU/piece

**Q.** And the “Reductions of Salmonella Typhimurium” value (Salmonella Typhimurium; [5])?
**A.** 3.17 ± 0.33^y log CFU/piece

**Q.** What about the “Populations of Salmonella Typhimurium” value (Salmonella Typhimurium; Tomato-surface, 8 s spray time + 30 min dwell, ND: not detectable (detection limit 0.70 log CFU/piece)) of the same molecule?
**A.** 2.46 ± 0.33^b log CFU/piece

**Q.** And the “Reductions of Salmonella Typhimurium” value (Salmonella Typhimurium; Tomato-surface, 8 s spray time + 30 min dwell, listed as hydrogen peroxide (H2O2) aerosols without cold plasma)?
**A.** 3.17 log CFU/piece

**Q.** And the “Reductions of Salmonella, range over the fresh produce items” value (Salmonella Typhimurium; all tested produce items and surfaces, optimized conditions, listed as hydrogen peroxide (H2O2) aerosols without cold plasma)?
**A.** 1.54-3.17 log CFU/piece and 1.53-3.17 log CFU/piece

**Q.** What about the “Reductions of Listeria innocua” value (Listeria innocua; [1]) of the same molecule?
**A.** 1.57 ± 0.37^y log CFU/piece

**Q.** And the “Populations of Listeria innocua” value (Listeria innocua; Cantaloupe rind, 30 s spray time + 30 min dwell, ND1: not detectable (detection limit 0.70 log CFU/piece))?
**A.** 3.88 ± 0.37^b log CFU/piece

**Q.** What about the “Reductions of Listeria innocua” value (Listeria innocua; Granny Smith apple, 8 s spray time + 30 min dwell) of the same molecule?
**A.** 2.69 ± 0.20^y log CFU/piece

**Q.** What about the “Populations of Listeria innocua” value (Listeria innocua; Granny Smith apple, 8 s spray time + 30 min dwell, ND1: not detectable (detection limit 0.70 log CFU/piece)) of the same molecule?
**A.** 2.90 ± 0.20^b log CFU/piece

**Q.** What about the “Reductions of Listeria innocua” value (Listeria innocua; [2]) of the same molecule?
**A.** 3.77 ± 0.35^y log CFU/piece

**Q.** What about the “Populations of Listeria innocua” value (Listeria innocua; Romaine lettuce-midrib, 30 s spray time + 30 min dwell, ND2: not detectable (detection limit 0.76 log CFU/piece)) of the same molecule?
**A.** 1.82 ± 0.35^b log CFU/piece

**Q.** What about the “Reductions of Listeria innocua” value (Listeria innocua; Romaine lettuce-midrib, 30 s spray time + 30 min dwell, listed as hydrogen peroxide (H2O2) aerosols without cold plasma) of the same molecule?
**A.** 3.77 log CFU/piece

**Q.** What about the “Reductions of Listeria innocua” value (Listeria innocua; [3]) of the same molecule?
**A.** 2.77 ± 0.34^y log CFU/piece

**Q.** And the “Populations of Listeria innocua” value (Listeria innocua; Romaine lettuce-upper leaf, 30 s spray time + 30 min dwell, ND2: not detectable (detection limit 0.76 log CFU/piece))?
**A.** 2.80 ± 0.34^b log CFU/piece

**Q.** What about the “Populations of Listeria innocua” value (Listeria innocua; [4]) of the same molecule?
**A.** 4.21 ± 0.60^b log CFU/piece

**Q.** And the “Reductions of Listeria innocua” value (Listeria innocua; [4])?
**A.** 1.35 ± 0.60^y log CFU/piece

**Q.** And the “Reductions of Listeria innocua” value (Listeria innocua; Tomato-stem scar, three cycles of 20 s spray time plus 20 min dwell time, listed as hydrogen peroxide (H2O2) aerosols without cold plasma)?
**A.** 1.35 log CFU/piece

**Q.** And the “Reductions of Listeria innocua” value (Listeria innocua; [5])?
**A.** 2.74 ± 0.21^y log CFU/piece

**Q.** And the “Populations of Listeria innocua” value (Listeria innocua; Tomato-surface, 8 s spray time + 30 min dwell, ND1: not detectable (detection limit 0.70 log CFU/piece))?
**A.** 2.77 ± 0.21^b log CFU/piece
